Reference: the NIST ThermoML archive (doi:10.1016/j.jct.2019.03.040)

Assays:
[1] = Liquid; for thermal diffusivity: 101.33 kPa, Laser flash apparatus
[2] = molar heat capacity at constant pressure; conditions: 101.33 kPa, Liquid, Small sample (50 mg) DSC

CCCOC(=O)CCC(C)=O [propyl levulinate]
Conditions	Critical pressure [kPa]	Critical temperature [K]	molar heat capacity at constant pressure [J/K/mol]	thermal diffusivity [m2/s]
[1], 303.15 K	–	–	–	7.82e-08
[1], 313.15 K	–	–	–	7.73e-08
[1], 323.15 K	–	–	–	7.62e-08
[1], 333.15 K	–	–	–	7.53e-08
[1], 343.15 K	–	–	–	7.37e-08
[1], 353.15 K	–	–	–	7.26e-08
[1], 363.15 K	–	–	–	7.22e-08
[1], Resistive pulse heating	2670	674	–	–
[2], 303.04 K	–	–	319.87	–
[2], 303.54 K	–	–	320.34	–
[2], 304.04 K	–	–	320.5	–
[2], 304.54 K	–	–	320.03	–
[2], 305.04 K	–	–	320.5	–
[2], 305.54 K	–	–	320.34	–
[2], 306.04 K	–	–	320.5	–
[2], 306.54 K	–	–	320.19	–
[2], 307.04 K	–	–	320.19	–
[2], 307.54 K	–	–	320.82	–
[2], 308.04 K	–	–	320.82	–
[2], 308.54 K	–	–	321.45	–
[2], 309.04 K	–	–	320.82	–
[2], 309.54 K	–	–	321.14	–
[2], 310.04 K	–	–	321.61	–
[2], 310.54 K	–	–	321.14	–
[2], 311.04 K	–	–	321.29	–
[2], 311.54 K	–	–	321.29	–
[2], 312.04 K	–	–	322.08	–
[2], 312.54 K	–	–	321.45	–
[2], 313.04 K	–	–	322.24	–
[2], 313.54 K	–	–	322.08	–
[2], 314.04 K	–	–	322.24	–
[2], 314.54 K	–	–	322.24	–
[2], 315.04 K	–	–	322.56	–
[2], 315.54 K	–	–	322.88	–
[2], 316.04 K	–	–	322.72	–
[2], 316.54 K	–	–	322.24	–
[2], 317.04 K	–	–	322.56	–
[2], 317.54 K	–	–	323.03	–
[2], 318.04 K	–	–	323.98	–
[2], 318.54 K	–	–	323.19	–
[2], 319.04 K	–	–	323.67	–
[2], 319.54 K	–	–	324.14	–
[2], 320.04 K	–	–	323.35	–
[2], 320.54 K	–	–	323.83	–
[2], 321.04 K	–	–	323.67	–
[2], 321.54 K	–	–	323.83	–
[2], 322.04 K	–	–	323.83	–
[2], 322.54 K	–	–	324.62	–
[2], 323.04 K	–	–	324.46	–
[2], 323.54 K	–	–	324.46	–
[2], 324.04 K	–	–	324.3	–
[2], 324.54 K	–	–	324.93	–
[2], 325.04 K	–	–	324.93	–
[2], 325.54 K	–	–	325.25	–
[2], 326.04 K	–	–	325.57	–
[2], 326.54 K	–	–	325.72	–
[2], 327.04 K	–	–	325.88	–
[2], 327.54 K	–	–	325.72	–
[2], 328.04 K	–	–	326.04	–
[2], 328.54 K	–	–	326.67	–
[2], 329.04 K	–	–	325.72	–
[2], 329.54 K	–	–	326.51	–
[2], 330.04 K	–	–	326.2	–
[2], 330.54 K	–	–	326.83	–
[2], 331.04 K	–	–	326.83	–
[2], 331.54 K	–	–	327.15	–
[2], 332.04 K	–	–	326.83	–
[2], 332.54 K	–	–	327.15	–
[2], 333.04 K	–	–	326.83	–
[2], 333.54 K	–	–	327.31	–
[2], 334.04 K	–	–	327.62	–
[2], 334.54 K	–	–	328.1	–
[2], 335.04 K	–	–	328.41	–
[2], 335.54 K	–	–	328.73	–
[2], 336.04 K	–	–	328.41	–
[2], 336.54 K	–	–	328.25	–
[2], 337.04 K	–	–	328.57	–
[2], 337.54 K	–	–	328.57	–
[2], 338.04 K	–	–	329.2	–
[2], 338.54 K	–	–	328.89	–
[2], 339.04 K	–	–	329.05	–
[2], 339.54 K	–	–	329.2	–
[2], 340.04 K	–	–	328.89	–
[2], 340.54 K	–	–	329.36	–
[2], 341.04 K	–	–	329.84	–
[2], 341.54 K	–	–	329.99	–
[2], 342.04 K	–	–	329.68	–
[2], 342.54 K	–	–	329.36	–
[2], 343.04 K	–	–	330.31	–
[2], 343.54 K	–	–	330.31	–
[2], 344.04 K	–	–	330.15	–
[2], 344.54 K	–	–	330.15	–
[2], 345.04 K	–	–	330.63	–
[2], 345.54 K	–	–	331.1	–
[2], 346.04 K	–	–	331.1	–
[2], 346.54 K	–	–	330.94	–
[2], 347.04 K	–	–	331.58	–
[2], 347.54 K	–	–	331.58	–
[2], 348.04 K	–	–	331.73	–
[2], 348.54 K	–	–	332.05	–
[2], 349.04 K	–	–	331.89	–
[2], 349.54 K	–	–	332.05	–
[2], 350.04 K	–	–	332.37	–
[2], 350.54 K	–	–	332.68	–
[2], 351.04 K	–	–	333.16	–
[2], 351.54 K	–	–	333	–
[2], 352.04 K	–	–	333	–
[2], 352.54 K	–	–	333.16	–
[2], 353.04 K	–	–	333.95	–
[2], 353.54 K	–	–	333.47	–
[2], 354.04 K	–	–	334.27	–
[2], 354.54 K	–	–	334.27	–
[2], 355.04 K	–	–	334.42	–
[2], 355.54 K	–	–	334.74	–
[2], 356.04 K	–	–	334.27	–
[2], 356.54 K	–	–	334.42	–
[2], 357.04 K	–	–	334.58	–
[2], 357.54 K	–	–	334.58	–
[2], 358.04 K	–	–	335.22	–
[2], 358.54 K	–	–	335.37	–
[2], 359.04 K	–	–	335.85	–
[2], 359.54 K	–	–	335.85	–
[2], 360.04 K	–	–	335.53	–
[2], 360.54 K	–	–	336.01	–
[2], 361.04 K	–	–	336.32	–
[2], 361.54 K	–	–	336.64	–
[2], 362.04 K	–	–	336.16	–
[2], 362.54 K	–	–	336.01	–
[2], 363.04 K	–	–	336.16	–
[2], 363.54 K	–	–	336.64	–
[2], 364.04 K	–	–	337.11	–
[2], 364.54 K	–	–	337.11	–
[2], 365.04 K	–	–	337.11	–
[2], 365.54 K	–	–	337.11	–
[2], 366.04 K	–	–	337.9	–
[2], 366.54 K	–	–	337.9	–
[2], 367.04 K	–	–	337.59	–
[2], 367.54 K	–	–	337.59	–
[2], 368.04 K	–	–	338.06	–
[2], 368.54 K	–	–	338.06	–
[2], 369.04 K	–	–	337.75	–
[2], 369.54 K	–	–	337.9	–
[2], 370.04 K	–	–	338.22	–
[2], 370.54 K	–	–	338.06	–
[2], 371.04 K	–	–	338.54	–
[2], 371.54 K	–	–	338.54	–
[2], 372.04 K	–	–	338.7	–
[2], 372.54 K	–	–	339.49	–
[2], 373.04 K	–	–	339.33	–
[2], 373.54 K	–	–	339.49	–
[2], 374.04 K	–	–	340.12	–
[2], 374.54 K	–	–	340.75	–
